In ChEMBL document CHEMBL1201862, “PubChem BioAssay data set” (2004):
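Growth conditions: 96-well plates. Treatment: test compound, 48 hours, 5 concentrations. Analysis: linear interpolation between bracketing concentrations; unreached endpoints set to highest concentration. At the GI50, growth is halved.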 Activity calls are given as the source filed them. Rule as the data show it: active = GI50 up to about 1.1 µM and inactive = higher.

Key:
Test in all cases: NCI-60 cell line screen, 48 h
OVCAR-5 = test system: OVCAR-5
NCI-H460 = test system: NCI-H460
LXFL 529 = test system: LXFL 529
IGROV-1 = test system: IGROV-1
UACC-62 = test system: UACC-62
HOP-62 = test system: HOP-62
SF-539 = test system: SF-539
HCC 2998 = test system: HCC 2998
SNB-78 = test system: SNB-78
HCT-15 = test system: HCT-15
SK-MEL-28 = test system: SK-MEL-28
U-251 = test system: U-251
HL-60 = test system: HL-60
SF-295 = test system: SF-295
SNB-75 = test system: SNB-75
MOLT-4 = test system: MOLT-4

In the case of `O=C(O)/C=C/c1ccncc1`, the GI50 (OVCAR-5) is reported as > 100 µM (inactive), the GI50 (NCI-H460) is reported as > 100 µM (inactive) and the GI50 (LXFL 529) is reported as > 100 µM (inactive). For the same molecule, the GI50 (IGROV-1) was > 100 µM (inactive), the GI50 (UACC-62) was > 100 µM (inactive) and the GI50 (HOP-62) was 0.223 µM (active). The GI50 (SF-539) was > 100 µM (inactive), the GI50 (HCC 2998) was > 100 µM (inactive) and the GI50 (SNB-78) was > 100 µM (inactive). The GI50 (HCT-15) was 14.5 µM, the GI50 (SK-MEL-28) was > 100 µM (inactive) and the GI50 (U-251) was 0.173 µM (active). For the same molecule, the GI50 (HL-60) was > 100 µM (inactive), the GI50 (SF-295) was > 100 µM (inactive) and the GI50 (SNB-75) was > 100 µM (inactive). For the same molecule, the GI50 (MOLT-4) was > 100 µM (inactive).
In the case of `CC1OC=CC(=O)C1O` (stereo unspecified), the GI50 (OVCAR-5) is reported as > 100 µM (inactive), the GI50 (NCI-H460) is reported as > 100 µM (inactive) and the GI50 (LXFL 529) is reported as > 100 µM (inactive). The GI50 (IGROV-1) was > 100 µM (inactive), the GI50 (UACC-62) was > 100 µM (inactive) and the GI50 (HOP-62) was > 100 µM (inactive). The GI50 (SF-539) was > 100 µM (inactive), the GI50 (HCC 2998) was > 100 µM (inactive) and the GI50 (SNB-78) was > 100 µM (inactive). The GI50 (HCT-15) was greater than 100 µM, the GI50 (SK-MEL-28) was > 100 µM (inactive) and the GI50 (U-251) was > 100 µM (inactive). The GI50 (HL-60) was > 100 µM (inactive), the GI50 (SF-295) was > 100 µM (inactive) and the GI50 (SNB-75) was > 100 µM (inactive). The GI50 (MOLT-4) was > 100 µM (inactive).
With `CC1(c2cc3c(cc2Br)OCO3)SCCCS1` the GI50 (OVCAR-5) was 42.3 µM (inactive), the GI50 (NCI-H460) was 36.2 µM (inactive) and the GI50 (LXFL 529) was 45.7 µM (inactive). For the same molecule, the GI50 (IGROV-1) was > 100 µM (inactive), the GI50 (UACC-62) was 50.6 µM (inactive) and the GI50 (HOP-62) was 31.1 µM (inactive). For the same molecule, the GI50 (SF-539) was 36.5 µM (inactive), the GI50 (HCC 2998) was 16.4 µM (inactive) and the GI50 (SNB-78) was 24.3 µM (inactive). For the same molecule, the GI50 (HCT-15) was 38.7 µM, the GI50 (SK-MEL-28) was 78 µM (inactive) and the GI50 (U-251) was 33 µM (inactive). For the same molecule, the GI50 (HL-60) was 25.1 µM (inactive), the GI50 (SF-295) was 49.1 µM (inactive) and the GI50 (SNB-75) was 40.6 µM (inactive). The GI50 (MOLT-4) was 24.7 µM (inactive).
In the case of `CCc1ccccc1NC(=O)CCc1n[nH]c(=S)o1`, the GI50 (OVCAR-5) is reported as > 100 µM (inactive), the GI50 (NCI-H460) is reported as > 100 µM (inactive) and the GI50 (LXFL 529) is reported as > 100 µM (inactive). The GI50 (IGROV-1) was > 100 µM (inactive), the GI50 (UACC-62) was > 100 µM (inactive) and the GI50 (HOP-62) was > 100 µM (inactive). For the same molecule, the GI50 (SF-539) was 76.2 µM (inactive), the GI50 (HCC 2998) was > 100 µM (inactive) and the GI50 (SNB-78) was > 100 µM (inactive). For the same molecule, the GI50 (HCT-15) was 19.3 µM, the GI50 (SK-MEL-28) was > 100 µM (inactive) and the GI50 (U-251) was > 100 µM (inactive). The GI50 (HL-60) was > 100 µM (inactive), the GI50 (SF-295) was > 100 µM (inactive) and the GI50 (SNB-75) was > 100 µM (inactive). The GI50 (MOLT-4) was > 100 µM (inactive).
In the case of `N#C/N=C(/N)NCO`, the GI50 (OVCAR-5) is reported as > 100 µM (inactive), the GI50 (NCI-H460) is reported as > 78 µM (inactive) and the GI50 (LXFL 529) is reported as > 63.1 µM (inactive). For the same molecule, the GI50 (IGROV-1) was > 100 µM (inactive), the GI50 (UACC-62) was > 100 µM (inactive) and the GI50 (HOP-62) was > 100 µM (inactive). For the same molecule, the GI50 (SF-539) was > 100 µM (inactive), the GI50 (HCC 2998) was > 100 µM (inactive) and the GI50 (SNB-78) was > 100 µM (inactive). For the same molecule, the GI50 (HCT-15) was greater than 40 µM, the GI50 (SK-MEL-28) was > 100 µM (inactive) and the GI50 (U-251) was > 53.7 µM (inactive). For the same molecule, the GI50 (HL-60) was > 100 µM (inactive), the GI50 (SF-295) was > 100 µM (inactive) and the GI50 (SNB-75) was > 100 µM (inactive). The GI50 (MOLT-4) was > 100 µM (inactive).
`CCOC(=O)C1=C(C)N(NC(N)=O)C(C)(O)C12CCOC2=O` (stereo unspecified) was tested, and the GI50 (OVCAR-5) was > 100 µM (inactive), the GI50 (NCI-H460) was > 100 µM (inactive) and the GI50 (LXFL 529) was > 100 µM (inactive). For the same molecule, the GI50 (IGROV-1) was > 100 µM (inactive), the GI50 (UACC-62) was > 100 µM (inactive) and the GI50 (HOP-62) was > 100 µM (inactive). For the same molecule, the GI50 (SF-539) was > 100 µM (inactive), the GI50 (HCC 2998) was > 100 µM (inactive) and the GI50 (SNB-78) was 1.97 µM (inactive). For the same molecule, the GI50 (HCT-15) was greater than 100 µM, the GI50 (SK-MEL-28) was > 100 µM (inactive) and the GI50 (U-251) was > 100 µM (inactive). For the same molecule, the GI50 (HL-60) was > 100 µM (inactive), the GI50 (SF-295) was > 100 µM (inactive) and the GI50 (SNB-75) was > 100 µM (inactive). The GI50 (MOLT-4) was > 100 µM (inactive).
